Assay results published in US11021444B2, “Antiviral compounds” (priority 2013, dated 2021).
Read-outs that look alike come from different tables or passages of the source.

How the values were obtained:
[1] = system: Respiratory Syncytial Virus (RSV) long strain; test: microbe, parasite or virus in culture; format: cell-based; settings: human respiratory syncytial virus, Tables A and B list compounds by EC50 band
Method: (§1) CPE reduction assays are performed as described by Sidwell and Huffman et al., Appl. Microbiol. (1971) 22(5):797-801 with slight modifications. HEp-2 cells (ATCC #, CCL-23) are seeded at a density of 1,500 cells/30 μl/well into the 384-well cell plate(s) (Corning #3701) one day prior to the assay. Compounds are added into 384-well cell plates by Labcyte POD 810 Plate Assembler system. Each of the test compounds is provided to duplicate wells of a 384-well cell plate at final concentrations starting from 100 μM or 1 μM using 1/3 stepwise dilutions for 9 points. Quick-thaw Respiratory Syncytial Virus (RSV) long strain (ATCC #VR-26) stock in a 37° C. water bath. Place on ice until ready to use. Viruses are diluted to the concentration of 100 TCID50/30 μL with medium and 30 μl diluted RSV are added into related wells of 384-well cell plates. For each plate, sixteen wells are set aside as uninfected, untreated cell controls (CC), and nine wells per test plate receive virus only as a control for virus replication (VC). The final DMSO concentration of all wells is 1%. Place the plates at 37° C., 5% CO2 for 5 days.
After 5 days incubation, observe the CPE of cells in all wells. […] Six μl of cell counting kit-8 reagent (CCK-8, Dojindo Molecular Technologies Inc., CK04-20) are added to each well, which allows colorimetric assays to determine the number of viable cells through the dehydrogenase activity detection. After 3-4 hour incubation, the absorbance of each well is measured with a spectrophotometric plate reader at 450 nm wavelength, using a 630 nm filter as background according to manufacturer's instruction.

[2] = Cytotoxicity Determination (CCK-8, without addition of virus); format: cell-based; settings: human, 50% cytotoxicity concentration (CC50)
Method: as §1
In order to determine the compound cytotoxicity, in parallel, each of the compounds is applied to duplicate wells in a 384-well cell plate at serial final concentrations starting from 100 μM using 1/2 stepwise dilutions for 7 points without addition of virus. Incubate the cells at 37° C., 5% CO2 for 5 days. Add 6 μL CCK-8 into each well and incubate in a CO2 incubator at 37° C. for 3-4 hours.

[3] = molecular target: recombinant RSV complex (Human respiratory syncytial virus A, UniProt P28887); test: RSV Polymerase Inhibition Assay; format: biochemical
Sequence of recombinant RSV complex (P28887 whole entry): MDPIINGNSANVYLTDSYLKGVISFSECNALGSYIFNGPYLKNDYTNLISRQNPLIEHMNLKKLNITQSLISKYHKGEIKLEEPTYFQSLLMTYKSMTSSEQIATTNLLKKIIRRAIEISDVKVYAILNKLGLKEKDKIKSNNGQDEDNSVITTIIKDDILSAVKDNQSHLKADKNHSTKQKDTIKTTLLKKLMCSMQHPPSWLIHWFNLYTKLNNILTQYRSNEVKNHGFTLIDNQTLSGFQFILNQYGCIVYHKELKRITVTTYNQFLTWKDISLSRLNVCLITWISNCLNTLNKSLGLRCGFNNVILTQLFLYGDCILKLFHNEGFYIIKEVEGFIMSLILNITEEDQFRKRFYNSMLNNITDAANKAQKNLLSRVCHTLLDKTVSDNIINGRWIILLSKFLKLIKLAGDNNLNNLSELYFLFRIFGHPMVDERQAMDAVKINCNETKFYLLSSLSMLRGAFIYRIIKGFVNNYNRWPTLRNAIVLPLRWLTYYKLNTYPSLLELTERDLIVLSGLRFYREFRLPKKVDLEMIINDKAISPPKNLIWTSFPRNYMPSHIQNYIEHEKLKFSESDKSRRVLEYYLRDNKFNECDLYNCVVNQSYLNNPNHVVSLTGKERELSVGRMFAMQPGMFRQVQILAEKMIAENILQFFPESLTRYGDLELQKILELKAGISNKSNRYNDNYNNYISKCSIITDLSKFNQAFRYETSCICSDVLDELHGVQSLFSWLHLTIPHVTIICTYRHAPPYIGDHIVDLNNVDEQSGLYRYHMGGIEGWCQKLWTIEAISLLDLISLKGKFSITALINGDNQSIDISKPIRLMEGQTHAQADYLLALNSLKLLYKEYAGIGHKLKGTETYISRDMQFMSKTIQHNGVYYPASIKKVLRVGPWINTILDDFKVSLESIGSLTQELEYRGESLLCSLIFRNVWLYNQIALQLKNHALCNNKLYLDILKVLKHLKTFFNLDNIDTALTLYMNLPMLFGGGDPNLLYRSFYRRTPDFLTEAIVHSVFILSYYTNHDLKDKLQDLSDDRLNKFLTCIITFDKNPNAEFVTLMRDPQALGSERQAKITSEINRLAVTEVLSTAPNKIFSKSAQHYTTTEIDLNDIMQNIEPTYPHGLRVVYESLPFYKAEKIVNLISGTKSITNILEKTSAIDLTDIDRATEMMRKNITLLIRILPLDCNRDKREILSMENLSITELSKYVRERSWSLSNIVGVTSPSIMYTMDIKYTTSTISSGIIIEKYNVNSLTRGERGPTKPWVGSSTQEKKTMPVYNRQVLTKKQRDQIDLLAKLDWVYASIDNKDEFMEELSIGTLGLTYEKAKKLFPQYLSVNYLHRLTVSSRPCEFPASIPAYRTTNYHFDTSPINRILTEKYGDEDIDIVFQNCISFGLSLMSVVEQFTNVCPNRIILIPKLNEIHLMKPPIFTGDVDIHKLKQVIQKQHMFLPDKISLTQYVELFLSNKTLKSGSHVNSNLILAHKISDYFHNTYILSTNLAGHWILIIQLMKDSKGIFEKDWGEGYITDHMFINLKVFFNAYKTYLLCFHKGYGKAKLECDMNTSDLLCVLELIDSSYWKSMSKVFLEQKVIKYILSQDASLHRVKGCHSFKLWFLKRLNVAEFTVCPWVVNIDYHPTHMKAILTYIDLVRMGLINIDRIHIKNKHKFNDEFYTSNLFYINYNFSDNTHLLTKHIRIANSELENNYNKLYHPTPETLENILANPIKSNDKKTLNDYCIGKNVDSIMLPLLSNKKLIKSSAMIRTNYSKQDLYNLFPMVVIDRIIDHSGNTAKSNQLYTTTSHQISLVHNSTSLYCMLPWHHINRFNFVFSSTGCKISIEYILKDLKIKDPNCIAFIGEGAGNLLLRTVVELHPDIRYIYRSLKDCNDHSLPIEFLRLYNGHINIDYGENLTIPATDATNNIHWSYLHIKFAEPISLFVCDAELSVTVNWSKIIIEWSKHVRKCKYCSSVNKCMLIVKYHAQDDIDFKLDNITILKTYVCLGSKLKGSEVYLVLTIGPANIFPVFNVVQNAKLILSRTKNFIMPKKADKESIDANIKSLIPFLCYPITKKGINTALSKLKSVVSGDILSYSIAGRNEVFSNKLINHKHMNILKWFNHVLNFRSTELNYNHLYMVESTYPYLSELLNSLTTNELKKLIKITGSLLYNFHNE
Sequence of recombinant RSV complex (P03421 whole entry, further chain): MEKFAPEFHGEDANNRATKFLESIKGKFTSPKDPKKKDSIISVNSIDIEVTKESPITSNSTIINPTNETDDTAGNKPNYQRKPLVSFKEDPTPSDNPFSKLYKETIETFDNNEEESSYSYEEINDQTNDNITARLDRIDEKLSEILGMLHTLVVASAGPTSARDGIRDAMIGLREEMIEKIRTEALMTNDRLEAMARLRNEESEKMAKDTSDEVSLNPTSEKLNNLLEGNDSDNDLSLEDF
Method: Standard RSV polymerase assays were conducted in the presence of 10 nM recombinant RSV complex in a reaction buffer containing Tris-HCl pH7.5, 6 mM MgCl2, and other additives and substrates including RNA oligonucleotides and radionucleotides. Standard reactions were incubated in 96-well plate format for 2 h at 30° C., in the presence of increasing concentration of inhibitor. The reaction was stopped with 90 μL of 0.1M EDTA, and the reaction product was transferred to a “reading” 96-well plate. After washing of the plate, radiolabeled RNA products were detected according to standard procedures with a Trilux Topcount scintillation counter.

[4] = HEp-2, 120 h, read-out: 50% effective concentration (EC50), HEp-2 cells infected with RSV long strain, 5 days, CCK-8 readout
[5] = 120 h, read-out: 50% effective concentration (EC50), HEp-2 cells infected with RSV long strain, 5 days, CCK-8 readout

Structure (SMILES) | EC50 [1, 4] [µM] | CC50 at 5 days [2] [µM] | IC50 [3] [µM] | EC50 [1, 5] [µM]
COc1ccc(C(O)(CNC(=O)c2ccc3c(c2)NC(=O)CO3)C(F)(F)F)nc1-c1ccc(F)c(Cl)c1 (stereo not drawn) [Compound 258] | < 1 | 10 to 100 | < 1 | 
COc1ccc(C(O)(CNC(=O)c2ccc(OC3CCNC3=O)cc2)C(F)(F)F)nc1-c1ccc(F)c(Cl)c1 (stereo not drawn) [Compound 261] | < 1 | 10 to 100 | < 1 | 
COc1ccc(C(O)(CNC(=O)c2ccc(OCCO)c(Cl)c2)C(F)(F)F)nc1-c1ccc(F)c(Cl)c1 (stereo not drawn) [Compound 262] | < 1 | 10 to 100 | < 1 | 
COc1ccc(C(O)(CNC(=O)c2ccc3ncn(C)c3c2)C(F)(F)F)nc1-c1ccc(F)c(Cl)c1 (stereo not drawn) [Compound 264] | 1 to 50 | 10 to 100 | < 1 | 
COc1ccc(C(O)(CNC(=O)c2ccc3c(c2)ncn3C)C(F)(F)F)nc1-c1ccc(F)c(Cl)c1 (stereo not drawn) [Compound 265] | 1 to 50 | 10 to 100 | < 10 | 
COc1ccc(C(O)(CNC(=O)c2ccc3ncoc3c2)C(F)(F)F)nc1-c1ccc(F)c(Cl)c1 (stereo not drawn) [Compound 266] | 1 to 50 | 10 to 100 | < 1 | 
COc1ccc(C(O)(CNC(=O)c2ccc3[nH]c(=O)n(C)c3c2)C(F)(F)F)nc1-c1ccc(F)c(Cl)c1 (stereo not drawn) [Compound 267] | < 1 | 10 to 100 | < 1 | 
COc1ccc(C(O)(CNC(=O)c2ccc3c(c2)[nH]c(=O)n3C)C(F)(F)F)nc1-c1ccc(F)c(Cl)c1 (stereo not drawn) [Compound 268] | 1 to 50 | 10 to 100 | < 10 | 
COc1cc(C(=O)NCC(O)(c2ccc(OC)c(-c3ccc(F)c(Cl)c3)n2)C(F)(F)F)ccc1OCC1(O)CC1 (stereo not drawn) [Compound 270] |  | 10 to 100 | < 1 | < 1
CC(C)(N)c1cc(-c2ccc(F)c(Cl)c2)nc(C(O)(CNC(=O)c2cscn2)C(F)(F)F)c1 (stereo not drawn) [Compound 277] | 1 to 50 | 10 to 100 | < 10 | 
CC(C)(N)c1cc(-c2ccc(F)c(Cl)c2)nc(C(O)(CNC(=O)c2cncs2)C(F)(F)F)c1 (stereo not drawn) [Compound 278] | 1 to 50 | 10 to 100 | < 1 | 
Cc1nc(C(=O)NCC(O)(c2cc(C(C)(C)N)cc(-c3ccc(F)c(Cl)c3)n2)C(F)(F)F)cs1 (stereo not drawn) [Compound 279] | 1 to 50 | 10 to 100 | < 1 | 
COc1cc(C(=O)NCC(O)(c2cc(C(C)(C)N)cc(-c3ccc(F)c(Cl)c3)n2)C(F)(F)F)ccc1O[C@@H]1CCNC1=O (stereo partly drawn) [Compound 285] | < 1 | 10 to 100 | < 1 | 
COc1cc(C(=O)NCC(C)(O)c2cc3c(c(-c4ccc(F)c(Cl)c4)n2)NCC3)ccc1OCCF (stereo not drawn) [Compound 286] | 1 to 50 | 10 to 100 | < 10 | 
COc1cc(C(=O)NCC(=O)c2cc3c(c(-c4c[nH]c5c(F)cccc45)n2)OCC3)ccc1OCCF [Compound 287] | < 1 | > 100 | < 1 | 
COc1cc(C(=O)NCC(C)(O)c2cc3cc[nH]c3c(-c3ccc(F)c(Cl)c3)n2)ccc1OCCF (stereo not drawn) [Compound 290] |  | 10 to 100 | < 10 | 1 to 50
COc1cc(C(=O)NCC(O)(c2cc3c(c(-c4c[nH]c5c(F)cccc45)n2)OCC3)C2CC2)ccc1OCCO (stereo not drawn) [Compound 297] | < 1 | 10 to 100 | < 1 | 
COc1cc(C(=O)NCC(O)(c2cc3c(c(-c4ccc(F)c(C(C)F)c4)n2)OCCC3(C)C)C2CC2)ccc1OCCO (stereo not drawn) [Compound 299] | < 1 | 10 to 100 | < 1 | 
COc1cc(C(=O)NCC(=O)c2cc3c(c(-c4ccc(F)c(Cl)c4)n2)OCC3C)ccc1OCCO (stereo not drawn) [Compound 305] | < 1 | 10 to 100 | < 1 | 
CCc1cc(-c2ccc(F)cc2)nc(C(C)(O)CNC(=O)c2ccc(OCCO)c(OC)c2)c1 (stereo not drawn) [Compound 353] | < 1 | > 100 | < 1 | 
